In patent US6599521B1 (priority 2000, dated 2003):

Columns and labels:
TSST-1 = format: cell-based, Staphylococcus aureus; settings: 24 hours at 35° C.
S. aureus MN8 = format: cell-based, Staphylococcus aureus; settings: 24 hours at 35° C.

Row | Compound | TSST-1 (TSST-1) | Final [S. aureus] (× 10^9 CFU/ml) (S. aureus MN8)
1 | CCCCCCCCCCCCOCCOCCOCCOCCO [Laureth-4] | 531.8 ng/mL | 4.57 × 10^9 CFU/ml
2 | CCCCCCCCCCCCCCCCCCOCCOCCO [Steareth-2] | 680.7 ng/mL | 5.76 × 10^9 CFU/ml
3 | PPG-5 Laureth-5 | 609.2 ng/mL | 3.82 × 10^9 CFU/ml
